From article PMC5746060, “General and Modular Strategy for Designing Potent, Selective, and Pharmacologically Compliant Inhibitors of Rhomboid Proteases” (Cell Chemical Biology, 2017)
Non-standard residues stand in square brackets, D forms with d. Residues, ends and D or L forms follow the SMILES beside them. ξ: configuration not given here. *: point of attachment. X3 = C[C@H](N*)C(=O)NS(C)(=O)=O; X4 = C[C@H](N*)C(=O)c1nccs1; boroAla = C[C@H](N*)B(O)O; ξA = CC(N)C(=O)O; CF3 = FC(F)(F)*; CH2Cl = ClC*

Target: T1, Escherichia coli rhomboid GlpG (Escherichia coli, UniProt P09391)
T1 construct: made in house; host or cells: E. coli C41(DE3)
Experiment: in vitro GlpG inhibition assay with fluorogenic transmembrane peptide substrate (apparent IC50)
Assay type: biochemical
Conditions: for IC50: 1 hr preincubation, 10 μM fluorogenic substrate KSp35, 0.05% (w/v) DDM; for fold decrease in potency compared with the parent compound 9: N-terminal truncation series
Description: To gain insight into these preferences and their possible interactions, we have generated tetra- and pentapeptidyl chloromethylketones (CMK or cmk henceforth) harboring amino acids preferred in positions P5 to P1 by the Escherichia coli rhomboid GlpG (GlpG henceforth), using the sequence background of the Providencia TatA ([Stevenson et al., 2007]), represented by the parent compound Ac-IATA-cmk. We measured the inhibitory properties of this series of compounds using a newly developed in vitro assay employing a fluorogenic transmembrane peptide substrate ([Ticha et al., 2017]) that faithfully represents a native rhomboid substrate.
Figure 1 The Potency of Substrate-Derived Inhibitors Can be Improved by Modifying the Amino acid Sequence of the P5 to P1 Region (A) The parent inhibitor Ac-IATA-cmk was modified by introducing strongly preferred amino acids ([Zoll et al., 2014]) into the P4, P3, P2, and P5 positions to yield the listed compounds. Their apparent IC50 values were measured with 1 hr preincubation using 10 μM fluorogenic substrate KSp35 and 0.05% (w/v) DDM. The reported values are best-fit means with SD representative of 2–3 measurements. (B) The sequence-optimized peptidyl chloromethylketones were soaked into the native crystals of GlpG and structures of the complexes were solved by X-ray diffraction (for statistics, see Table S1). […] Note that in the Ac-RVRHA-cmk structure (right), the side chain of the Arg residue in the P5 position of the inhibitor has not been modeled due to poor or missing electron density peaks. (C) Interactions of RVRHA-cmk with GlpG were analyzed by Ligplot+ ([Laskowski and Swindells, 2011]). Ligands are shown as thick sticks with carbons in green, proteins as thin sticks with carbons in gray, hydrogen bonds as yellow dashed lines, and amino acids involved in van der Waals contacts are highlighted as transparent surfaces. The inhibitor forms covalent bonds with S201 and H254 via the chloromethylketone warhead, and it hydrogen bonds with the backbone of residues 196–198 from the L3 loop and residues 248–250 from the L5 loop. van der Waals contacts with the inhibitor are formed by the residues from the L3 loop of GlpG, by S193 and Q189 from TMD3, and by F146 and M120 from the L1 loop that pack against the Val side chain of the P4 position of the inhibitor, as observed previously ([Zoll et al., 2014]). (D) The conformations of peptide inhibitors bound to the active site of GlpG were compared by performing structural alignment of the complexes of VRHAcmk (PDB: 5MT7), RVRHAcmk (PDB: 5MT8), IATAcmk (PDB: 4QO2), and VRMAcho (PDB: 5F5B) in PyMOL ([Schrodinger, 2012]). […] The backbone of the ligands in all complexes has virtually identical conformation with the exception of the distortion of the oxyanion by the chloromethylketone, and the biggest differences are found in the conformation of the P2 side chain, which is not surprising, because almost any side chain can be accommodated in this position ([Zoll et al., 2014]). TEXT PRINTED IN THE PICTURE: (A) AcIATAcmk: IC50 (μM): 213 | (A) AcVATAcmk: IC50 (μM): 450 | (A) AcIAHAcmk: IC50 (μM): 200 | (A) AcIRTAcmk: IC50 (μM): 84 | (A) AcVRHAcmk: IC50 (μM): 27 | (A) AcRVRHAcmk: IC50 (μM): 8
Figure 2 A Screen of Electrophilic Warheads for the Inhibition of Rhomboid Proteases The optimized parent sequence Ac-RVRHA was linked to electrophilic warheads commonly used for targeting serine proteases (reviewed in [Hedstrom, 2002], [Walker and Lynas, 2001]). The apparent IC50 values of the compounds were measured in 0.05% DDM using 10 μM substrate KSp35 ([Ticha et al., 2017]) with 1 hr preincubation. Given are the mean values of 2–3 measurements. […]

T1 sequence (P09391 whole entry): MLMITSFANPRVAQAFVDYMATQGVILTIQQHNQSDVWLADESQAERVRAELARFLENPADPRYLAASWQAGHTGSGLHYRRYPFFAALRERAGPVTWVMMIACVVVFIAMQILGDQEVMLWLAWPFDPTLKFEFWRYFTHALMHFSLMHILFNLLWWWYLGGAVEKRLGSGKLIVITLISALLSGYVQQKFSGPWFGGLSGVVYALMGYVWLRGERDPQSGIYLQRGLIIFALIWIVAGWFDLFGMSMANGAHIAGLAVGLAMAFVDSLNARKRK

Question: `CC[C@H](C)[C@H](NC(C)=O)C(=O)N[C@@H](C)C(=O)N[C@@H](Cc1c[nH]cn1)C(=O)N[C@@H](C)C(=O)CCl` [AcIAHAcmk] (Ac-IAHA-CH2Cl) was tested. Which IC50 did it give?
Answer: Its IC50 is 200 µM.

Question: `CC[C@H](C)[C@H](NC(C)=O)C(=O)N[C@@H](C)C(=O)N[C@H](C(=O)N[C@@H](C)C(=O)CCl)[C@@H](C)O` [AcIATAcmk, reference compound] (Ac-IATA-CH2Cl) was tested. Which IC50 did it give?
Answer: The IC50 was 213 µM.

Question: How did the IC50 turn out when `CC[C@H](C)[C@H](NC(C)=O)C(=O)N[C@@H](CCCNC(=N)N)C(=O)N[C@H](C(=O)N[C@@H](C)C(=O)CCl)[C@@H](C)O` [AcIRTAcmk] (Ac-IRTA-CH2Cl) was run?
Answer: The IC50 was 84 µM.

Question: For `CC(=O)N[C@@H](CCCNC(=N)N)C(=O)N[C@H](C(=O)N[C@@H](CCCNC(=N)N)C(=O)N[C@@H](Cc1c[nH]cn1)C(=O)N[C@@H](C)C(=O)CCl)C(C)C` [AcRVRHAcmk] (Ac-RVRHA-CH2Cl), which IC50 is on record?
Answer: Its IC50 is 8 µM.

Question: For `CC(=O)N[C@H](C(=O)N[C@@H](C)C(=O)N[C@H](C(=O)N[C@@H](C)C(=O)CCl)[C@@H](C)O)C(C)C` [AcVATAcmk] (Ac-VATA-CH2Cl), which IC50 is on record?
Answer: The IC50 was 450 µM.

Question: `CC(=O)N[C@H](C(=O)N[C@@H](CCCNC(=N)N)C(=O)N[C@@H](Cc1c[nH]cn1)C(=O)N[C@@H](C)C(=O)CCl)C(C)C` [AcVRHAcmk] (Ac-VRHA-CH2Cl) was tested. Which IC50 did it give?
Answer: Its IC50 is 27 µM.

Question: With `CC(=O)N[C@@H](CCCNC(=N)N)C(=O)N[C@H](C(=O)N[C@@H](CCCNC(=N)N)C(=O)N[C@@H](Cc1c[nH]cn1)C(=O)N[C@@H](C)C(=O)NS(C)(=O)=O)C(C)C` [acylsulfonamide, AcRVRHA-acylsulfonamide] (Ac-RVRH-X3) as the compound, how does the IC50 read?
Answer: The IC50 was > 1000 µM.

Question: Which IC50 does the source give for `CC(=O)N[C@@H](CCCNC(=N)N)C(=O)N[C@H](C(=O)N[C@@H](CCCNC(=N)N)C(=O)N[C@@H](Cc1c[nH]cn1)C(=O)N[C@@H](C)B(O)O)C(C)C` [boronate, AcRVRHA-boronate] (Ac-RVRH-boroAla) here?
Answer: Its IC50 is 8 µM.

Question: With `CC(=O)N[C@H](C(=O)N[C@@H](CCCNC(=N)N)C(=O)N[C@@H](Cc1c[nH]cn1)C(=O)N[C@@H](C)C(=O)C(=O)NCCc1ccccc1)C(C)C` [compound 12] as the compound, how does the IC50 read?
Answer: The IC50 was 0.55 µM.

Question: What does the source list for `CC(=O)N[C@@H](CCCNC(=N)N)C(=O)N[C@@H](Cc1c[nH]cn1)C(=O)N[C@@H](C)C(=O)C(=O)NCCc1ccccc1` [compound 13, Ac-RHA-CONH-phenylethyl]?
Answer: IC50: 9 µM; fold decrease in potency compared with the parent compound 9 (ratio of apparent IC50 values): ~20 fold

Question: With `CC(=O)N[C@@H](Cc1c[nH]cn1)C(=O)N[C@@H](C)C(=O)C(=O)NCCc1ccccc1` [compound 14] as the compound, how does the IC50 read?
Answer: Its IC50 is ~65 µM.

Question: What about the “fold decrease in potency compared with the parent compound 9” value (ratio of apparent IC50 values) of the same compound?
Answer: The value was ~150 fold.

Question: What does the source list for `CC(=O)N[C@@H](C)C(=O)C(=O)NCCc1ccccc1` [compound 15, Ac-A-CONH-phenylethyl]?
Answer: IC50: > 1000 µM; fold decrease in potency compared with the parent compound 9 (ratio of apparent IC50 values): ~2,250 fold

Question: With `CC(=O)N[C@@H](CCCNC(=N)N)C(=O)N[C@H](C(=O)N[C@@H](CCCNC(=N)N)C(=O)N[C@@H](Cc1c[nH]cn1)C(=O)N[C@@H](C)C(=O)c1nccs1)C(C)C` [thiazolylketone, AcRVRHA-thiazolylketone] (Ac-RVRH-X4) as the compound, how does the IC50 read?
Answer: The IC50 was > 1000 µM.

Question: For `CC(=O)N[C@@H](CCCNC(=N)N)C(=O)N[C@H](C(=O)N[C@@H](CCCNC(=N)N)C(=O)N[C@@H](Cc1c[nH]cn1)C(=O)NC(C)C(=O)C(F)(F)F)C(C)C` (stereo partly shown) [trifluoromethylketone, AcRVRHA-trifluoromethylketone] (Ac-RVRH[ξA]-CF3), which IC50 is on record?
Answer: The IC50 was > 1000 µM.

Question: With “Ac-RVRHA-NH2 [compound 1, AcRVRHA-CONH2]” as the compound, how does the IC50 read?
Answer: The IC50 was 203 µM.

Question: And the “fold less potent than the peptidyl boronate” value (ratio of apparent IC50 values)?
Answer: The value was “about 25 fold”.
